According to patent publication US10308689B2, “Dengue virus (DV) polypeptide sequences, T cell epitopes and methods and uses thereof” (LA JOLLA INSTITUTE FOR ALLERGY AND IMMUNOLOGY, priority 2010, dated 2019):
pIC50: −log10 of the molar value. Ends that are not written are not given here.

Assays:
[1] = test system: PBMC of healthy adult blood donors from Colombo, Sri Lanka; experiment: Ex vivo IFNγ ELISPOT, HLA-matched PBMC of Sri Lankan blood donors; format: cell-based, human; design: Total Response per epitope: unit not given here
[2] = test system: PBMC from DENV seropositive HLA matched human donors; experiment: IFNγ ELISPOT of human PBMC restimulated 7 days with peptide and IL2; format: cell-based; conditions: responding B*0702 matched donors (out of 5)
Description: To evaluate the antigenicity of the epitopes in humans, 2×10^6 PBMC/ml were stimulated in the presence of 1 μg/ml individual peptide for 7 days. Cells were cultured at 37° C., 5% CO2, and recombinant IL2 (10 U/mL, eBiosciences, San Diego, Calif.) was added 3 days after antigenic stimulation. After one week, PBMC were harvested and tested at a concentration of 1×10^5/well in an IFNγ ELISPOT assay, as described above. […] To be considered positive, IFNγ responses needed to exceed the threshold set as the mean responses of HLA non-matched and DENV seronegative donors plus 3 times the standard deviation.

[3] = test system: splenic CD4+ T cells from DENV3 (D3S5CX) infected DRB1*0101 transgenic IFN-α/βR−/− mice; experiment: IFNγ ELISPOT, CD4+ T cells of DENV3 (D3S5CX) infected DRB1*0101 transgenic IFN-α/βR−/− mice; format: cell-based, mouse; conditions: day 7 after DENV3 D3S5CX, SFC/10^6 T cells
HLA DRB1*0101 = molecular target: T1, HLA DRB1*0101 (Homo sapiens, UniProt P01903+P01911, A100R/D57E/F55L/F60I/F76Y/I96L/L162R/M171V/P40L/Q125E/R42F/V115G/Y59C); experiment: MHC peptide-binding assay, purified DRB1*0101
T1 construct: made in house

HLA B*4001 = HLA B*4001 (Homo sapiens, UniProt P01889, A65T/A93T/A95T/D138N/D98Y/E176V/E69K/N87E/Q56L/Q94N/R180L/S121R/S35A/S48T/T167S/V36M/W171L/Y33H/Y91S); experiment: MHC peptide-binding assay, purified B*4001
Description: The non-transfected cell line was used as a negative control. […] The LG2 cell line was used as a negative control.

DENV2 (S221) = experiment: Peptide immunization and DENV2 challenge, DENV2 RNA by real-time RT-PCR; format: in vivo, mouse; conditions: immunization with the four H-2^b peptides together; day 4 after S221 infection
Description: Mice were euthanized by isoflurane inhalation and blood was collected via cardiac puncture. Serum was separated from whole blood by centrifugation in serum separator tubes (Starsted) Small intestines were put into PBS, flushed, filleted, chopped into small pieces, and put into RNAlater (Qiagen). Other organs were immediately placed into RNAlater and all organs were subsequently homogenized for 3 min in 1 ml tissue lysis buffer (Qiagen Buffer RLT) using a Mini-Beadbeater-8 (BioSpec Products) or QiagenTissueLyser Immediately after homogenization, all tissues were centrifuged (5 min, 4° C., 16,000×g) to pellet debris, and RNA was isolated using the RNeasy Mini Kit (Qiagen). Serum RNA was isolated using the QIAamp Viral RNA Mini Kit (Qiagen). After elution, viral RNA was stored at −80° C. Quantitative RT-PCR was performed according to a published protocol (Houng et al., J Virol Methods 86:1-11 (2000)), except a MyiQ Single-Color Real-Time PCR Detection System (Bio-Rad) with One-Step qRT-PCR Kit (Quanta BioSciences) were used. […] After transcription, DNA was digested with DNase I, and RNA was purified using the RNeasy Mini Kit and quantified by spectrophotometry. To control for RNA quality and quantity when measuring DENV in tissues, the level of 18S rRNA was measured using 18S primers described previously (Lacher, et al., Cancer Res 66:1648 (2006)) in parallel real-time RT-PCR reactions. […]

CC[C@H](C)[C@H](NC(=O)CNC(=O)[C@H](CCC(=O)O)NC(=O)[C@@H]1CCCN1C(=O)[C@@H](N)[C@@H](C)O)C(=O)N[C@H](C(=O)N1CCC[C@H]1C(=O)N[C@@H](CO)C(=O)N[C@@H](CCSC)C(=O)N[C@@H](Cc1ccccc1)C(=O)O)[C@@H](C)CC [NS31978-1987] was tested, and the “Total Response per epitope” value ([1]; IFNγ ELISPOT response summed over responding donors, per epitope) was 1771.7, the “# donors responded” value ([1]; number of donors responding to the epitope, HLA-matched PBMC, proteome-wide screen) was 7 and the “T cell response [SFC]” value ([1]; per epitope, ex vivo IFNγ SFC/10^6 PBMC) was 1772 SFC. The “# of responders” value ([1]; responding donors, HLA allele(s)) was 7 and the frequency in humans [2] was 20% (1 out of 5).

In the case of CSCC[C@H](NC(=O)[C@H](CCCNC(=N)N)NC(=O)[C@@H]1CCCN1C(=O)[C@@H](N)[C@@H](C)O)C(=O)N[C@@H](CS)C(=O)N[C@H](C(=O)N[C@@H](CCCNC(=N)N)C(=O)N[C@@H](CCC(=O)O)C(=O)N[C@@H](CCC(=O)O)C(=O)N[C@@H](Cc1ccccc1)C(=O)O)[C@@H](C)O [NS52885-2894], the frequency in humans [2] was 60% (3 out of 5).

For CC[C@H](C)[C@H](NC(=O)[C@H](C)NC(=O)[C@@H](N)CCCNC(=N)N)C(=O)N[C@@H](Cc1c[nH]c2ccccc12)C(=O)N[C@@H](Cc1ccc(O)cc1)C(=O)N[C@@H](CCSC)C(=O)N[C@@H](Cc1c[nH]c2ccccc12)C(=O)N[C@@H](CC(C)C)C(=O)NCC(=O)N[C@@H](C)C(=O)N[C@@H](CCCNC(=N)N)C(=O)N[C@@H](Cc1ccc(O)cc1)C(=O)N[C@@H](CC(C)C)C(=O)N[C@@H](CCC(=O)O)C(=O)N[C@@H](Cc1ccccc1)C(=O)O [NS52967-2981], the “T cell response [SFC]” value [3] was 586 SFC and the pIC50 (HLA DRB1*0101) was 7.32.

For AEQTGVSHNL [NS2B1412-1421], the pIC50 (HLA B*4001) was 7.17.

GEIGAIALDF [NS31598-1607] gave a pIC50 (HLA B*4001) of 7.40.

In the case of “NS2A8-15: DENV-2 derived H-2^b restricted dominant CD8+ T cell epitope (FSLGVLGM)”, the “lower serum DENV RNA levels, peptide-immunized vs mock-immunized mice” value (DENV2 (S221)) was 350 fold.
